Experiments:
[1] = biological target: T1, SD-line rat AhR (Rattus norvegicus, UniProt P41738, Q794H); assay: Reporter gene assay in Neuro2a with pTHE100×3/Luc and pcDNA4-rAhR; format: cell-based; details: 1 to 10,000 pM TCDD
T1 construct: The SD-line rat AhR gene-coding region was amplified from the reverse-transcribed sample by means of PCR; V5-His (C-terminal tag of vector pcDNA4/V5-His B); expressed in transfected cells; host or cells: mouse neuroblastoma Neuro2a, transient transfection with LIPOFECTAMINE 2000
T1 sequence (P41738 10-853 Q794H): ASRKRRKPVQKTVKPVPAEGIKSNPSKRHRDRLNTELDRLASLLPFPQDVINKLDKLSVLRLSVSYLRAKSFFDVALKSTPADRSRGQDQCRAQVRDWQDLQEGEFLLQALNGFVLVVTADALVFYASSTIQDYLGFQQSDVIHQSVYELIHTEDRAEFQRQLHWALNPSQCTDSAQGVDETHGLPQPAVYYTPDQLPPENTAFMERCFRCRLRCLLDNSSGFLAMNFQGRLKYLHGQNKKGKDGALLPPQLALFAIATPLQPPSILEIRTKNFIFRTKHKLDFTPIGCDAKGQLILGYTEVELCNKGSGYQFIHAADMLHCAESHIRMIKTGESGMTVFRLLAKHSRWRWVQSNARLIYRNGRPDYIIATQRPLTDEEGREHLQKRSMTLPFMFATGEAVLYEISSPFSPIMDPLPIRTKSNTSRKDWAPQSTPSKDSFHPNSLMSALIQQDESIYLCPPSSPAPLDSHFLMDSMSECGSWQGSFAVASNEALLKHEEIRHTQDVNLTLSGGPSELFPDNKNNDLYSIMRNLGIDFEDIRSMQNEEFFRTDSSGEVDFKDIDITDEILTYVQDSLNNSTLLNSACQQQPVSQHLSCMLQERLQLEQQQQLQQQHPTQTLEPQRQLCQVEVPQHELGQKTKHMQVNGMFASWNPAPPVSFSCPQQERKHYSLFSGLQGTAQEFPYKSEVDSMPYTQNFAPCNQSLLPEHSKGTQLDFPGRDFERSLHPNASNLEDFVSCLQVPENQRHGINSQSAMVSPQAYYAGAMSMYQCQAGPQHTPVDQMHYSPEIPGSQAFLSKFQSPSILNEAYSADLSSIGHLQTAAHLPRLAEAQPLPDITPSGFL
Excerpt: In Example 8, the vector pTHE100×3/Luc (Example 7, FIG. 7A) was used as the vector containing a reporter gene, and Neuro2a was used as the cell.
In this Example, a combination of pcDNA4-rAhR (Example 1) containing the SD-line rat AhR gene and pcDNA4/V5-His/lacZ (Invitrogen), as well as a combination of PGV-mAhR (Example 1) containing the C57/BL6-line mouse AhR gene and pcDNA4/V5-His/lacZ were used as the vectors for introducing into the cell together with pTHE100×3/Luc. pcDNA4-rAhR was introduced into the cell for constitutive expression of the SD-line rat AhR (SEQ ID No: 10); PGV-mAhR was introduced into the cell for constitutive expression of C57/BL6-line mouse AhR (SEQ ID No: 11); and pcDNA4/V5-His/lacZ was introduced into the cell for normalization of the transfection efficiency of the vector.
The vectors were introduced into the cell by using LIPOFECTAMINE 2000, similarly to the method described in Example 3. After the above vectors were introduced into the cell, the obtained cell was exposed to 1 to 10,000 pM of TCDD to examine the increase in expression amount of the reporter gene in response to TCDD.

[2] = biological target: T2, aryl hydrocarbon receptor (Rattus norvegicus, UniProt P41738, Q794H); assay: Reporter gene assay in Neuro2a with vectors having TH transcriptional regulatory regions different in length; format: cell-based, SD-line rat; details: 10 nM TCDD
T2 construct: The SD-line rat AhR gene-coding region was amplified from the reverse-transcribed sample by means of PCR; V5-His (C-terminal tag of vector pcDNA4/V5-His B); expressed in transfected cells; host or cells: mouse neuroblastoma Neuro2a, transient transfection with LIPOFECTAMINE 2000
T2 sequence (P41738 10-853 Q794H): T1 sequence (P41738 10-853 Q794H)
Method: Shorter fragments of TH transcriptional regulatory region (i.e., 2.0 kbp, 1.5 kbp, 1.0 kbp and 500 bp of fragments) were prepared by PCR using the 2.5 kbp of the TH transcriptional regulatory region incorporated into PGV-THp25 as a template. The following different forward primers were used for each fragment: 2.0-kbp fragment:
As the reverse primer, a common primer (5′-[…]-3′ (SEQ ID No: 17)) was used. Recognition sequence for a restriction enzyme KpnI was added to the terminal of each forward primer, and recognition sequence for a restriction enzyme NheI was added to the terminal of the reverse primer, in order to facilitate incorporation of the PCR amplification fragments into the vector. Pyrobest DNA polymerase (Takara Bio Inc.) was used in the PCR. The amplified TH transcriptional regulatory region fragments were digested with restriction enzymes KpnI and NheI, and subjected to electrophoresis on agarose. The corresponding bands were purified with a QIAQUICK Gel Extraction Kit (manufactured by Qiagen) and incorporated into PGV-B2 vector (TOYO B-NET) previously digested with KpnI and NheI.
These vectors were introduced into Neuro2a by a method similar to Example 3. The obtained cell was exposed to 10 nM TCDD, and the change in the expression amount of the reporter gene was examined in the cell (FIG. 3).
For narrowing down the region involved in transcriptional regulation by the test substance, shorter fragments of the transcriptional regulatory region (i.e., 400 bp, 300 bp, 200 bp and 100 bp of fragments) were prepared by PCR using the 500 bp of the TH transcriptional regulatory region as a template. The following forward primers were used for each fragment.
As the reverse primer, a common primer (5′-[…]-3′ (SEQ ID No: 17)) was used. Recognition sequence for a restriction enzyme KpnI was added to the terminal of each forward primer, and recognition sequence for a restriction enzyme NheI was added to the terminal of the reverse primer. The DNA fragments were amplified by using Pyrobest DNA polymerase (Takara Bio Inc.). […]

Clc1cc2c(cc1Cl)Oc1cc(Cl)c(Cl)cc1O2 [TCDD, 2,3,7,8-tetrachlorodibenzo-p-dioxine]
transcriptional response, rat AhR compared with mouse AhR [1]: transcriptional response greater than that of the C57/BL6-line mouse AhR | induction of transcription of the reporter gene in response to TCDD ([1]; SD-line rat AhR): effective in inducing transcription of the reporter gene | change in the expression amount of the reporter gene (response) ([2]; all vectors with TH transcriptional regulatory regions of 2.5 kbp to 500 bp): there was a response to TCDD | change in the expression amount of the reporter gene (response) ([2]; vectors with TH transcriptional regulatory region of 500 bp, 400 bp or 300 bp): there was a response to TCDD | change in the expression amount of the reporter gene (response) ([2]; vectors with region of 200 bp or 100 bp): no response to TCDD
